Test results: patent US4782176A, “Phenoxycarboxylic acids” (Hoffmann-La Roche Inc., priority 1983, dated 1988)
Read-outs that look alike come from different tables or passages of the source.

Legend:
[1] = system: leukotriene E4-induced bronchoconstriction; assay: Guinea Pig Bronchoconstriction, In Vivo (leukotriene E4 challenge; drug i.v. or oral); conditions: for Guinea Pig Bronchoconstriction, In Vivo % I, 10 mg/kg I.V.: leukotriene E4 challenge; for inhibition in vivo at 100 mg/kg: Cavia porcellus, po, 100 mg/kg p.o.
Procedure: (b) Guinea Pig Bronchoconstriction, In Vivo:
Male guinea pigs (Hostley strain) weighing 300 to 450 grams are anesthetized with urethane (2 g/kg) intraperitoneally and a polyethylene cannula is inserted into the jugular vein for intravenous drug administration. Tracheal pressure is recorded from a cannula inserted in the trachea and connected to a Statham pressure transducer. Respiration is paralyzed with succinyl choline (1.2 mg/kg, i.v.) and the animals are mechanically respirated (Howard rodent respirator) at 40 breaths/minute and 2.5 cc tidal volume. Two minutes thereafter, propanolol (0.1 mg/kg, i.v.) is administered. Five minutes later, the animals are pretreated intravenously for 30 seconds (at 10 mg/kg) with test drug or control vehicle. The animals are subsequently challenged with a maximally constrictory dose of leukotriene E4 also administered intravenously. The change (cm H2 O) between pre and peak ventilatory pressure readings is averaged for three control animals and five drug treated animals. The percent inhibition is calculated from the following formula: (Control-Drug Treated/Control)×100. For determination of oral activity, spontaneously breathing animals are pretreated orally for 2 hours (at 100 mg/kg) prior to challange with leukitriene E4.

[2] = system: SRS-A-induced constriction of the guinea pig ileum; assay: Guinea Pig Ileum, In Vitro (inhibition of SRS-A-induced constriction); conditions: Cavia porcellus; SRS-A (EC50 dose) challenge, 37° C., atropine and pyrilamine present
Procedure: (a) Guinea Pig Ileum, In Vitro:
The guinea pig ileum bioassay system has been described by Orange and Austen, Adv. Immunol. […] A 1.5 cm segment is removed from animals weighing 300-400 g and suspended in an organ bath containing 10 ml of Tyrodes solution with 10^-6 M atropine sulfate and 10^-6 M pyrilamine maleate. […] The SRS-A utilized in this screen is obtained by challenging chopped lung fragments from actively sensitized guinea pigs with egg albumin, in vitro. A dose-response curve to SRS-A challenge is established for the ileum. […] The drug concentration which inhibits, by 50%, the SRS-A-induced constriction of the guinea pig ileum is determined.

[3] = system: leukotriene E4-induced bronchoconstriction; assay: Guinea Pig Bronchoconstriction, In Vivo (Aerosol)
Procedure: (c) Guinea Pig Bronchoconstriction, In Vivo (Aerosol):
(§1) Male guinea pigs (Hartley strain) weighing 300 to 500 g are anesthetized with urethane (2 g/kg) intraperitoneally and a polyethylene cannula is inserted into the jugular vein for drug administration. Tracheal pressure is recorded from a cannula inserted in the trachea and connected to a Statham pressure transducer. After surgical preparation of the animals, a period of time is allowed for pulmonary functions to stabilize. The test compound is administered according to the following protocol. Propanolol (0.1 mg/kg) is administered intravenously while the animals breathed spontaneously. Five minutes thereafter, the animals are exposed for a five minute period to a 1% (w/v) aerosol solution of test compound (adjusted to an alkaline pH where necessary for drug solubilization) or to distilled water of the appropriate pH (for control purposes). A Monaghan (Model 750) ultrasonic nebulizer is used to administer all test compounds by inhalation. The nebulizer ultrasonic frequency is adjusted to produce particles in the 1-8μ diameter range (average 3μ). Aqueous solutions are prepared fresh and introduced into the chamber of the nebulizer. The output of the nebulizer is made available to the animal by directing a bias flow of aerosol through a y tube connected to the tracheal cannula. At the end of the exposure period, the animals are paralyzed with succinylcholine (1.2 mg/kg, i.v.) and mechanically respirated (Harvard rodent respirator) at 40 breaths/minute and 2.5 cc tidal volume. Animals are then challenged with a maximum constrictory dose of leukotriene E4 delivered intravenously 30 seconds after administration of the succinylcholine.
(§2) The change (cm H2 O) between pre and peak ventilatory pressure readings is averaged for the three control animals and five drug treated animals. The percent inhibition is calculated from the following formula: [formula] When various drug concentrations are tested, the percent inhibition at each concentration is plotted as log concentration (abscissa) versus percent inhibition (ordinate) and the IC50 is determined from linear regression analysis.

[4] = system: leukotriene E4-induced bronchoconstriction; assay: Guinea Pig Bronchoconstriction, In Vivo (Aerosol), duration of action; conditions: 1% aerosol; time for % inhibition to fall below 40%
Procedure: as §1, §2
In order to determine the duration of action (doa), the animals are prepared as described above, except that the time between aerosol exposure and challenge with LTE4 is varied. All compounds are administered at a concentration of 1%. Duration of action is calculated from plots of time (abscissa) versus % inhibition (ordinate). The duration of action is defined as the time for the % inhibition to fall below 40%.

[5] = LD50; conditions: in vivo, species not given
[6] = 2 hours prior to leukotriene E4 challenge
[7] = time after exposure not given, leukotriene E4 challenge
[8] = determined 30 seconds after exposure to test drug (footnote a)

Compound	Guinea Pig Bronchoconstriction, In Vivo % I, 10 mg/kg I.V. [1]	inhibition in vivo at 100 mg/kg [1, 6]	IC50 [2]	Guinea Pig Bronchoconstriction, In Vivo Aerosol IC50 (%) ([3]; determined 15 minutes after exposure to test drug (footnote b))	Aerosol Duration of Action [4]	Guinea Pig Bronchoconstriction, In Vivo Aerosol IC50 (%) [3, 7]	Guinea Pig Bronchoconstriction, In Vivo Aerosol IC50 (%) [3, 8]	LD50 ([5]; ip, read-out: LD50 i.p.)	LD50 ([5]; po, read-out: LD50 p.o.)	oral activity in guinea pig bronchoconstriction (in words) ([1]; oral, 100 mg/kg, 2 hours prior to leukotriene E4 challenge)
CCCc1c(OCC(O)COc2c(C(C)=O)ccc(OCC(=O)O)c2CCC)ccc(C(C)=O)c1O (racemic) [racemic [4-acetyl-3-[3-(4-acetyl-3-hydroxy-2-propylphenoxy)-2-hydroxypropoxy]-2-propylphenoxy]acetic acid]	89%	29%	1000 nM	0.1%	72 min					
CCCc1c(OCCCOCCCOc2c(C(C)=O)ccc(OCCCC(=O)O)c2CCC)ccc(C(C)=O)c1O [4-[4-Acetyl-3-[3-[3-(4-acetyl-3-hydroxy-2-propylphenoxy)propoxy]propoxy]-2-propylphenoxy]butanoic acid]	93%	56%	200 nM		37 min	0.008%				
CCCc1c(OCCCOc2c(C(C)=O)ccc(OCCCC(=O)O)c2CCC)ccc(C(C)=O)c1O [4-[4-acetyl-3-[3-(4-acetyl-3-hydroxy-2-propylphenoxy)propoxy]-2-propylphenoxy]butanoic acid]	97%	81%	200 nM				0.44%	650 mg/kg	770 mg/kg	
CCCc1c(OCCCCCOc2c(C(C)=O)ccc(OCCCC(=O)O)c2CCC)ccc(C(C)=O)c1O [4-[4-acetyl-3-[[5-(4-acetyl-3-hydroxy-2-propylphenoxy)pentyl]oxy]-2-propylphenoxy]butanoic acid]	92%	84%	1000 nM		46 min	0.01%				
CCCc1c(OCC(O)COc2ccc3c(=O)cc(C(=O)O)oc3c2CCC)ccc(C(C)=O)c1O (stereo not shown) [7-[3-(4-Acetyl-3-hydroxy-2-propylphenoxy)-2-hydroxypropoxy]-4-oxo-8-propyl-4H-1-benzopyran-2-carboxylic acid, reference compound]	98%									orally inactive
CCCc1c(OCCOCCOc2c(C(C)=O)ccc(OCC(=O)O)c2CCC)ccc(C(C)=O)c1O [[4-acetyl-3-[2-[2-(4-acetyl-3-hydroxy-2-propylphenoxy)ethoxy]ethoxy]-2-propylphenoxy]acetic acid]	86%	26%	200 nM		14 min	0.02%		170 mg/kg	800 mg/kg	
CCCc1c(OCCOCCOCCOc2c(C(C)=O)ccc(OCC(=O)O)c2CCC)ccc(C(C)=O)c1O [[4-acetyl-3-[2-[2-[2-(4-acetyl-3-hydroxy-2-propylphenoxy)ethoxy]ethoxy]ethoxy]-2-propylphenoxy]acetic acid]	85%	4%	1000 nM		42 min	0.04%		120 mg/kg	650 mg/kg	
CCCc1c(OCCOCCOCCOCCOc2c(C(C)=O)ccc(OCC(=O)O)c2CCC)ccc(C(C)=O)c1O [[4-acetyl-3-[2-[2-[2-[2-(4-acetyl-3-hydroxy-2-propylphenoxy)ethoxy]ethoxy]ethoxy]ethoxy]-2-propylphenoxy]acetic acid]	90%		300 nM		73 min	0.04%				
CCCc1c(OCCCOc2c(C(C)=O)ccc(OCC(=O)O)c2CCC)ccc(C(C)=O)c1O [[4-acetyl-3-[3-(4-acetyl-3-hydroxy-2-propylphenoxy)propoxy]-2-propylphenoxy]acetic acid]	95%	52%	2000 nM		90 min		0.07%	90 mg/kg	500 mg/kg	
CCCc1c(OCCCCCOc2c(C(C)=O)ccc(OCC(=O)O)c2CCC)ccc(C(C)=O)c1O [[4-acetyl-3-[5-(4-acetyl-3-hydroxy-2-propylphenoxy)pentyloxy]-2-propylphenoxy]acetic acid]	91%	51%	100 nM		55 min	0.02%		140 mg/kg	900 mg/kg	
